Source: ChEMBL document CHEMBL1201861, “Genomics of Drug Sensitity in Cancer screening data, Wellcome Trust Sanger Institute”

How the values were obtained:
CP50-MEL-B = test: cells; type: functional, cell-based; conditions: Homo sapiens;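 note: growth inhibition of the human cell line, measured with a cell viability read-out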
Description: SANGER: Inhibition of human CP50-MEL-B cell growth in a cell viability assay.

ChaGo-K-1 = test: cells; type: functional, cell-based; conditions: Homo sapiens;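 note: growth inhibition of ChaGo-K-1 cells, read out with a cell viability assay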
Description: SANGER: Inhibition of human ChaGo-K-1 cell growth in a cell viability assay.

DoTc2-4510 = test: cells; type: functional, cell-based; conditions: Homo sapiens
G-401 = test: cells; type: functional, cell-based; conditions: Homo sapiens
Description: SANGER: Inhibition of human G-401 cell growth in a cell viability assay.

HCC1395 = test: cells; type: functional, cell-based; conditions: Homo sapiens;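 note: growth inhibition of HCC1395 cells, read out by a cell viability assay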
Description: SANGER: Inhibition of human HCC1395 cell growth in a cell viability assay.

HCC1806 = test: cells; type: functional, cell-based; conditions: Homo sapiens;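 note: growth inhibition of the cancer cell line, determined with a cell viability assay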
Description: SANGER: Inhibition of human HCC1806 cell growth in a cell viability assay.

HCC1937 = test: cells; type: functional, cell-based; conditions: Homo sapiens;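 note: growth inhibition measured with a cell viability read-out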
Description: SANGER: Inhibition of human HCC1937 cell growth in a cell viability assay.

Hs-578T = test: cells; type: functional, cell-based; conditions: Homo sapiens
Description: SANGER: Inhibition of human Hs-578-T cell growth in a cell viability assay.

IGROV-1 = test: cells; type: functional, cell-based; conditions: Homo sapiens;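 note: reduction of IGROV-1 cell growth, read out with a viability assay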
Description: SANGER: Inhibition of human IGROV-1 cell growth in a cell viability assay.

M059J = test: cells; type: functional, cell-based; conditions: Homo sapiens;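 note: growth inhibition of M059J cells, read out with a cell viability assay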
Description: SANGER: Inhibition of human M059J cell growth in a cell viability assay.

MDA-MB-157 = test: cells; type: functional, cell-based; conditions: Homo sapiens
Description: SANGER: Inhibition of human MDA-MB-157 cell growth in a cell viability assay.

MDA-MB-175-VII = test: cells; type: functional, cell-based; conditions: Homo sapiens
NB12 = test: cells; type: functional, cell-based; conditions: Homo sapiens;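 note: growth inhibition of human NB12 cells, read out by a cell viability assay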
Description: SANGER: Inhibition of human NB12 cell growth in a cell viability assay.

NCI-H1651 = test: cells; type: functional, cell-based; conditions: Homo sapiens;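 note: Read-out is a cell viability assay, with IC50 expressing inhibition of NCI-H1651 cell growth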
Description: SANGER: Inhibition of human NCI-H1651 cell growth in a cell viability assay.

NCI-H1793 = test: cells; type: functional, cell-based; conditions: Homo sapiens;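 note: cell growth inhibition, read out by a cell viability assay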
Description: SANGER: Inhibition of human NCI-H1793 cell growth in a cell viability assay.

NCI-H1993 = test: cells; type: functional, cell-based; conditions: Homo sapiens;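 note: growth inhibition of the cancer cell line, assessed with a cell viability assay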
Description: SANGER: Inhibition of human NCI-H1993 cell growth in a cell viability assay.

NCI-H2052 = test: cells; type: functional, cell-based; conditions: Homo sapiens;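 note: growth inhibition of NCI-H2052 cells, read out with a cell viability assay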
Description: SANGER: Inhibition of human NCI-H2052 cell growth in a cell viability assay.

NCI-H2170 = test: cells; type: functional, cell-based; conditions: Homo sapiens;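 note: cell viability assay measuring growth inhibition of human NCI-H2170 cancer cells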
Description: SANGER: Inhibition of human NCI-H2170 cell growth in a cell viability assay.

NCI-H630 = test: cells; type: functional, cell-based; conditions: Homo sapiens;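 note: growth inhibition of NCI-H630 cells, read out with a cell viability assay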
Description: SANGER: Inhibition of human NCI-H630 cell growth in a cell viability assay.

NCI-H650 = test: cells; type: functional, cell-based; conditions: Homo sapiens;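 note: growth inhibition of NCI-H650 cells, read out by a viability assay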
Description: SANGER: Inhibition of human NCI-H650 cell growth in a cell viability assay.

NCI-H810 = test: cells; type: functional, cell-based; conditions: Homo sapiens;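 note: IC50 reflects inhibition of cancer cell line growth, read out with a cell viability assay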
Description: SANGER: Inhibition of human NCI-H810 cell growth in a cell viability assay.

NY = test: cells; type: functional, cell-based; conditions: Homo sapiens
Description: SANGER: Inhibition of human NY cell growth in a cell viability assay.

OAW-42 = test: cells; type: functional, cell-based; conditions: Homo sapiens;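 note: growth inhibition of OAW-42 cells, read out with a cell viability assay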
Description: SANGER: Inhibition of human OAW-42 cell growth in a cell viability assay.

OVCAR-5 = test: cells; type: functional, cell-based; conditions: Homo sapiens;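 note: growth inhibition of human OVCAR-5 cells, read out with a cell viability assay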
Description: SANGER: Inhibition of human OVCAR-5 cell growth in a cell viability assay.

PANC-03-27 = test: cells; type: functional, cell-based; conditions: Homo sapiens
Description: SANGER: Inhibition of human PANC-03-27 cell growth in a cell viability assay.

RO82-W-1 = test: cells; type: functional, cell-based; conditions: Homo sapiens;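 note: growth inhibition of human RO82-W-1 cells, measured with a cell viability assay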
Description: SANGER: Inhibition of human RO82-W-1 cell growth in a cell viability assay.

RT-112 = test: cells; type: functional, cell-based; conditions: Homo sapiens
Description: SANGER: Inhibition of human RT-112 cell growth in a cell viability assay.

S-117 = test: cells; type: functional, cell-based; conditions: Homo sapiens
Description: SANGER: Inhibition of human S-117 cell growth in a cell viability assay.

SNU-387 = test: cells; type: functional, cell-based; conditions: Homo sapiens
Description: SANGER: Inhibition of human SNU-387 cell growth in a cell viability assay.

SW1088 = test: cells; type: functional, cell-based; conditions: Homo sapiens;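 note: growth inhibition of human SW1088 cells, read out by a cell viability assay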
Description: SANGER: Inhibition of human SW1088 cell growth in a cell viability assay.

SW1463 = test: cells; type: functional, cell-based; conditions: Homo sapiens;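 note: growth inhibition of SW1463 cells, determined with a cell viability assay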
Description: SANGER: Inhibition of human SW1463 cell growth in a cell viability assay.

SiHa = test: cells; type: functional, cell-based; conditions: Homo sapiens;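 note: Viability-based readout of growth inhibition in SiHa cells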
Description: SANGER: Inhibition of human SiHa cell growth in a cell viability assay.

AN3-CA = test: cells; type: functional, cell-based; conditions: Homo sapiens;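 note: growth inhibition of human AN3-CA cells measured by a cell viability assay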
Description: SANGER: Inhibition of human AN3-CA cell growth in a cell viability assay.

ASPC1 = test: cells; type: functional, cell-based; conditions: Homo sapiens;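 note: growth inhibition of AsPC-1 cells, read out with a cell viability assay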
Description: SANGER: Inhibition of human AsPC-1 cell growth in a cell viability assay.

BFTC-909 = test: cells; type: functional, cell-based; conditions: Homo sapiens
Description: SANGER: Inhibition of human BFTC-909 cell growth in a cell viability assay.

CAL-120 = test: cells; type: functional, cell-based; conditions: Homo sapiens;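 note: cell growth inhibition, read out as cell viability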
Description: SANGER: Inhibition of human CAL-120 cell growth in a cell viability assay.

CAL-54 = test: cells; type: functional, cell-based; conditions: Homo sapiens;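 note: growth inhibition of CAL-54 cells, read out by a viability measurement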
Description: SANGER: Inhibition of human CAL-54 cell growth in a cell viability assay.

CAL-62 = test: cells; type: functional, cell-based; conditions: Homo sapiens;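 note: growth inhibition of CAL-62 cells, read out with a cell viability assay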
Description: SANGER: Inhibition of human CAL-62 cell growth in a cell viability assay.

U2OS = test: cells; type: functional, cell-based, U-2-OS; conditions: Homo sapiens;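 note: growth inhibition of human U-2-OS cells, determined with a cell viability assay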
Description: SANGER: Inhibition of human U-2-OS cell growth in a cell viability assay.

COLO-680N = test: cells; type: functional, cell-based; conditions: Homo sapiens;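 note: cell viability assay used to measure inhibition of COLO-680N cell growth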
Description: SANGER: Inhibition of human COLO-680N cell growth in a cell viability assay.

IM-9 = test: SANGER: Inhibition of human IM-9 cell growth in a cell viability assay.; type: functional, cell-based; conditions: Homo sapiens, IM-9
D-542MG = test: cells; type: functional, cell-based; conditions: Homo sapiens
Description: SANGER: Inhibition of human D-542MG cell growth in a cell viability assay.

DMS-153 = test: cells; type: functional, cell-based, Homo sapiens; conditions: Homo sapiens, DMS-153
Description: SANGER: Inhibition of human DMS-153 cell growth in a cell viability assay.

EHEB = test: cells; type: functional, cell-based; conditions: Homo sapiens;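 note: growth inhibition of human EHEB cells, read out with a cell viability assay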
Description: SANGER: Inhibition of human EHEB cell growth in a cell viability assay.

IMR-5 = test: cells; type: functional, cell-based, Homo sapiens; conditions: Homo sapiens, IMR-5; read-out: IC50;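 note: growth inhibition of human IMR-5 cells, read out with a cell viability assay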
Description: SANGER: Inhibition of human IMR-5 cell growth in a cell viability assay.

LB373-MEL-D = test: cells; type: functional, cell-based, Homo sapiens; conditions: Homo sapiens, LB373-MEL-D;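 note: growth inhibition of the cell line, read out in a cell viability assay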
Description: SANGER: Inhibition of human LB373-MEL-D cell growth in a cell viability assay.

LU-165 = test: cells; type: functional, cell-based, Homo sapiens; conditions: Homo sapiens, LU-165
Description: SANGER: Inhibition of human LU-165 cell growth in a cell viability assay.

MC-CAR = test: cells; type: functional, cell-based, Homo sapiens; conditions: Homo sapiens, MC-CAR;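 note: growth inhibition of the human MC-CAR cell line, read out by a cell viability assay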
Description: SANGER: Inhibition of human MC-CAR cell growth in a cell viability assay.

MFH-ino = test: cells; type: functional, cell-based, Homo sapiens; conditions: Homo sapiens, MFH-ino;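 note: growth inhibition of human MFH-ino cells, read out by a cell viability assay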
Description: SANGER: Inhibition of human MFH-ino cell growth in a cell viability assay.

NCI-H2171 = test: cells; type: functional, cell-based, Homo sapiens; conditions: Homo sapiens, NCI-H2171;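 note: growth inhibition of human NCI-H2171 cells, read out by a cell viability assay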
Description: SANGER: Inhibition of human NCI-H2171 cell growth in a cell viability assay.

NCI-H524 = test: cells; type: functional, cell-based, Homo sapiens; conditions: Homo sapiens, NCI-H524;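 note: growth inhibition of human NCI-H524 cells, read out through a cell viability assay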
Description: SANGER: Inhibition of human NCI-H524 cell growth in a cell viability assay.

RPMI-6666 = test: cells; type: functional, cell-based, Homo sapiens; conditions: Homo sapiens, RPMI-6666
Description: SANGER: Inhibition of human RPMI-6666 cell growth in a cell viability assay.

SCLC-21H = test: cells; type: functional, cell-based, Homo sapiens; conditions: Homo sapiens, SCLC-21H;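 note: growth inhibition of cultured human SCLC-21H cells, read out with a cell viability assay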
Description: SANGER: Inhibition of human SCLC-21H cell growth in a cell viability assay.

CAL-148 = test: cells; type: functional, cell-based, Homo sapiens; conditions: Homo sapiens, CAL-148
Description: SANGER: Inhibition of human CAL-148 cell growth in a cell viability assay.

THP-1 = test: cells; type: functional, cell-based, Homo sapiens; conditions: Homo sapiens, THP-1;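 note: growth inhibition of THP-1 cells, read out via a cell viability assay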
Description: SANGER: Inhibition of human THP-1 cell growth in a cell viability assay.

TUR = test: cells; type: functional, cell-based, Homo sapiens; conditions: Homo sapiens, TUR;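 note: growth inhibition of human TUR cells, read out with a cell viability assay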
Description: SANGER: Inhibition of human TUR cell growth in a cell viability assay.

WSU-NHL = test: cells; type: functional, cell-based, Homo sapiens; conditions: Homo sapiens, WSU-NHL;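 note: growth inhibition of human WSU-NHL cells, read out with a cell viability assay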
Description: SANGER: Inhibition of human WSU-NHL cell growth in a cell viability assay.

Q: What does the source list for `NC1(c2ccc(-c3nc4ccn5c(=O)[nH]nc5c4cc3-c3ccccc3)cc2)CCC1` [MK-2206]?
A: IC50 (CP50-MEL-B): > 4000 nM; IC50 (ChaGo-K-1): > 4000 nM; IC50 (DoTc2-4510): > 4000 nM; IC50 (G-401): 1300 nM; IC50 (HCC1395): 2750 nM; IC50 (HCC1806): > 4000 nM; IC50 (HCC1937): > 4000 nM; IC50 (Hs-578T): 2110 nM; IC50 (IGROV-1): 552 nM; IC50 (M059J): > 4000 nM; IC50 (MDA-MB-157): > 4000 nM; IC50 (MDA-MB-175-VII): 137 nM; IC50 (NB12): > 4000 nM; IC50 (NCI-H1651): > 4000 nM; IC50 (NCI-H1793): > 4000 nM; IC50 (NCI-H1993): > 4000 nM; IC50 (NCI-H2052): > 4000 nM; IC50 (NCI-H2170): > 4000 nM; IC50 (NCI-H630): > 4000 nM; IC50 (NCI-H650): > 4000 nM; IC50 (NCI-H810): > 4000 nM; IC50 (NY): > 4000 nM; IC50 (OAW-42): 887 nM; IC50 (OVCAR-5): > 4000 nM; IC50 (PANC-03-27): > 4000 nM; IC50 (RO82-W-1): > 4000 nM; IC50 (RT-112): 3520 nM; IC50 (S-117): > 4000 nM; IC50 (SNU-387): 1880 nM; IC50 (SW1088): 1950 nM; IC50 (SW1463): > 4000 nM; IC50 (SiHa): > 4000 nM; IC50 (AN3-CA): 3620 nM; IC50 (ASPC1): 221 nM; IC50 (BFTC-909): > 4000 nM; IC50 (CAL-120): > 4000 nM; IC50 (CAL-54): 1710 nM; IC50 (CAL-62): > 4000 nM; IC50 (U2OS): > 4000 nM; IC50 (COLO-680N): > 4000 nM

Q: What does the source list for `CO[C@@H]1[C@H](N(C)C(=O)c2ccccc2)C[C@H]2O[C@]1(C)n1c3ccccc3c3c4c(c5c6ccccc6n2c5c31)C(=O)NC4` [MIDOSTAURIN]?
A: IC50 (HCC1395): 84.3 nM; IC50 (IGROV-1): > 512 nM; IC50 (IM-9): > 512 nM; IC50 (NCI-H2052): > 512 nM; IC50 (NCI-H630): > 512 nM; IC50 (NCI-H810): 210 nM; IC50 (OVCAR-5): > 512 nM; IC50 (PANC-03-27): 160 nM; IC50 (SNU-387): 139 nM; IC50 (AN3-CA): 322 nM; IC50 (CAL-120): 211 nM; IC50 (CAL-54): 209 nM

Q: For `CC(C)C[C@H](NC(=O)[C@H](Cc1ccccc1)NC(=O)c1cnccn1)B(O)O` [BORTEZOMIB], which IC50 (D-542MG) is on record?
A: 0.329 nM

Q: And the IC50 (DMS-153)?
A: > 20 nM

Q: And the IC50 (EHEB)?
A: 1.67 nM

Q: And the IC50 (IM-9)?
A: > 20 nM

Q: And the IC50 (IMR-5)?
A: > 20 nM

Q: What about the IC50 (LB373-MEL-D) of the same compound?
A: 0.7 nM

Q: And the IC50 (LU-165)?
A: > 20 nM

Q: And the IC50 (MC-CAR)?
A: > 20 nM

Q: What about the IC50 (MFH-ino) of the same compound?
A: 0.443 nM

Q: And the IC50 (NB12)?
A: 1.56 nM

Q: What about the IC50 (NCI-H2171) of the same compound?
A: > 20 nM

Q: And the IC50 (NCI-H524)?
A: > 20 nM

Q: And the IC50 (RPMI-6666)?
A: > 20 nM

Q: What about the IC50 (SCLC-21H) of the same compound?
A: > 20 nM

Q: What about the IC50 (CAL-148) of the same compound?
A: > 20 nM

Q: What about the IC50 (THP-1) of the same compound?
A: > 20 nM

Q: What about the IC50 (TUR) of the same compound?
A: > 20 nM

Q: What about the IC50 (WSU-NHL) of the same compound?
A: > 20 nM

Q: How did the IC50 (DMS-153) turn out when `C[C@@H](Oc1cc(-c2cnn(C3CCNCC3)c2)cnc1N)c1c(Cl)ccc(F)c1Cl` [CRIZOTINIB] was run?
A: > 2000 nM

Q: And the IC50 (EHEB)?
A: > 2000 nM

Q: What about the IC50 (IM-9) of the same compound?
A: > 2000 nM

Q: What about the IC50 (IMR-5) of the same compound?
A: > 2000 nM

Q: And the IC50 (LB373-MEL-D)?
A: > 2000 nM

Q: And the IC50 (LU-165)?
A: > 2000 nM

Q: And the IC50 (MC-CAR)?
A: > 2000 nM

Q: And the IC50 (MFH-ino)?
A: > 2000 nM

Q: What about the IC50 (NCI-H2171) of the same compound?
A: > 2000 nM

Q: What about the IC50 (NCI-H524) of the same compound?
A: > 2000 nM

Q: What about the IC50 (RPMI-6666) of the same compound?
A: > 2000 nM

Q: And the IC50 (SCLC-21H)?
A: > 2000 nM

Q: What about the IC50 (CAL-148) of the same compound?
A: > 2000 nM

Q: What about the IC50 (THP-1) of the same compound?
A: > 2000 nM

Q: And the IC50 (TUR)?
A: > 2000 nM

Q: And the IC50 (WSU-NHL)?
A: > 2000 nM

Q: `Cc1cc(N2CCOCC2)cc2[nH]c(-c3c(NC[C@@H](O)c4cccc(Cl)c4)cc[nH]c3=O)nc12` was tested. Which IC50 (DMS-153) did it give?
A: > 5120 nM

Q: And the IC50 (EHEB)?
A: > 5120 nM

Q: What about the IC50 (IM-9) of the same compound?
A: > 5120 nM

Q: What about the IC50 (IMR-5) of the same compound?
A: > 5120 nM

Q: What about the IC50 (LB373-MEL-D) of the same compound?
A: > 5120 nM

Q: And the IC50 (LU-165)?
A: > 5120 nM

Q: And the IC50 (MC-CAR)?
A: > 5120 nM

Q: What about the IC50 (MFH-ino) of the same compound?
A: 344 nM

Q: What about the IC50 (NCI-H2171) of the same compound?
A: > 5120 nM

Q: And the IC50 (NCI-H524)?
A: > 5120 nM

Q: And the IC50 (RPMI-6666)?
A: 3450 nM

Q: What about the IC50 (SCLC-21H) of the same compound?
A: > 5120 nM

Q: And the IC50 (CAL-148)?
A: > 5120 nM

Q: What about the IC50 (THP-1) of the same compound?
A: > 5120 nM

Q: What about the IC50 (TUR) of the same compound?
A: > 5120 nM

Q: And the IC50 (WSU-NHL)?
A: > 5120 nM

Q: How did the IC50 (DMS-153) turn out when `C=CC(=O)N1CCCC(Nc2nc(Nc3ccc(N(C)C(=O)CC)cc3)nc3[nH]cnc23)C1` (stereo not drawn) was run?
A: > 10200 nM

Q: What about the IC50 (EHEB) of the same compound?
A: > 10200 nM

Q: And the IC50 (IM-9)?
A: > 10200 nM

Q: And the IC50 (IMR-5)?
A: > 10200 nM

Q: What about the IC50 (LB373-MEL-D) of the same compound?
A: > 10200 nM

Q: And the IC50 (LU-165)?
A: > 10200 nM

Q: And the IC50 (MC-CAR)?
A: > 10200 nM

Q: What about the IC50 (MFH-ino) of the same compound?
A: > 10200 nM

Q: What about the IC50 (NCI-H2171) of the same compound?
A: > 10200 nM

Q: And the IC50 (NCI-H524)?
A: > 10200 nM

Q: And the IC50 (RPMI-6666)?
A: > 10200 nM

Q: What about the IC50 (SCLC-21H) of the same compound?
A: > 10200 nM

Q: And the IC50 (CAL-148)?
A: > 10200 nM

Q: What about the IC50 (THP-1) of the same compound?
A: > 10200 nM

Q: And the IC50 (TUR)?
A: > 10200 nM

Q: And the IC50 (WSU-NHL)?
A: > 10200 nM
